For seven molecules, Ki, EC50 and Emax results are on record in patent publication US9040663B2, “Melanocortin receptor-specific peptides” (AstraZeneca AB, priority 2009, dated 2015).

Test [1] concerns the target T1, hMC4-R (Homo sapiens (Human), UniProt P32245). Kind of test: Competitive inhibition binding assay using [I125]-NDP-α-MSH, hMC4-R. The settings on record: membranes of HEK-293 cells expressing recombinant hMC4-R, read-out: MC4-R Ki.
Test [2] deals with T1, hMC4-R. Description: High and low density hMC4-R functional assay (cAMP, HEK293-T-REx-MC4-R cells). Type of test: cell-based. The settings on record: for Emax: NDP-α-MSH = 100%, read-out: Intrinsic Activity (%).
The target of another test is MC1-R. Kind of test: Competitive inhibition binding assay using [I125]-NDP-α-MSH, MC1-R. The settings on record: membranes of B-16 mouse melanoma cells (endogenous MC1-R), in some instances HEK-293 hMC1-R. As for the experimental part: 7.1 Competitive Inhibition Assay using [I^125]-NDP-α-MSH.
A competitive inhibition binding assay was performed for exemplified peptides according to the invention using membrane homogenates prepared from HEK-293 cells that express recombinant hMC4-R, hMC3-R, or hMC5-R, and from B-16 mouse melanoma cells (containing endogenous MC1-R). In some instances, HEK-293 cells that express recombinant hMC1-R were employed. Assays were performed in 96 well GF/B Millipore multiscreen filtration plates (MAFB NOB10) pre-coated with 0.5% bovine serum albumin (Fraction V). Membrane homogenates were incubated with 0.2 nM (for hMC4-R) 0.4 nM (for MC3-R and MC5-R) or 0.1 nM (for mouse B16 MC1-R or hMC1-R) [I^125]-NDP-α-MSH (Perkin Elmer) and increasing concentrations of test peptides of the present invention in buffer containing 25 mM HEPES buffer (pH 7.5) with 100 mM NaCl, 2 mM CaCl2, 2 mM MgCl2, 0.3 mM 1,10-phenanthroline, and 0.2% bovine serum albumin. After incubation for 60 minutes at 37° C., the assay mixture was filtered and the membranes washed three times with ice-cold buffer. Filters were dried and counted in a gamma counter for bound radioactivity. […] Maximal specific binding (100%) was defined as the difference in radioactivity (cpm) bound to cell membranes in the absence and presence of 1 μM NDP-α-MSH. […] Each assay was conducted in triplicate and the actual mean values are described, with results less than 0% reported as 0%. Ki values for test peptides of the present invention were determined using Graph-Pad Prism® curve-fitting software.

The mark [3] stands for this setting: 0.1 ng/mL Doxycycline (low density hMC4-R system).
Setting [4] is: 10 ng/mL Doxycycline (high density hMC4-R system).

Read-outs that look alike come from different tables or passages of the source.

T1 sequence (P32245 whole entry): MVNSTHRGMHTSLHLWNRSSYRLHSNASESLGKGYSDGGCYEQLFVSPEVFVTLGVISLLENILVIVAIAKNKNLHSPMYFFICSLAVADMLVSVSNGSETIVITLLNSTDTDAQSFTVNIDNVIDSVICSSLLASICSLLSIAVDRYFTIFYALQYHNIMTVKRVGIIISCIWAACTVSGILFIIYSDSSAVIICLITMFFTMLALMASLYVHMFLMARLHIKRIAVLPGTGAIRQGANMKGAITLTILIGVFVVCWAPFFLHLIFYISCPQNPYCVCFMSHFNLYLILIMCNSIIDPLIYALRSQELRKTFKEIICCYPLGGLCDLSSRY

Consider `CC(=O)N[C@@H](CCCNC(=N)N)C(=O)N[C@H]1CCC(=O)NCCC[C@@H](C(=O)O)NC(=O)[C@H](Cc2c[nH]c3ccccc23)NC(=O)[C@H](CCCNC(=N)N)NC(=O)[C@@H](Cc2cccc(Cl)c2)NC(=O)[C@H](CCCN)NC1=O` [Example 55, Ac-Arg-cyclo(Glu-Orn-D-Phe(3-Cl)-Arg-Trp-Orn)-OH], for which the Ki is 20 nM on hMC4-R [1] and 23 nM on MC1-R. In addition, the figures for the EC50 on hMC4-R [2] (setting [3]) and on hMC4-R [2] (setting [4]) were 10 nM and 0.8 nM, respectively. The Emax on hMC4-R [2] (setting [3]) is 28%; on hMC4-R [2] (setting [4]), 98%.

As to `CC(=O)N[C@H](CCCNC(=N)N)C(=O)N[C@H]1CCCNC(=O)CC[C@@H](C(N)=O)NC(=O)[C@H](Cc2c[nH]c3ccccc23)NC(=O)[C@H](CCCNC(=N)N)NC(=O)[C@@H](Cc2ccccc2F)NC(=O)[C@H](Cc2c[nH]cn2)NC1=O` [Example 53, Ac-D-Arg-cyclo(Orn-His-D-Phe(2-F)-Arg-Trp-Glu)-NH2], the Ki on hMC4-R [1] worked out at 0.95 nM; at MC1-R it was 0.75 nM. Also, the EC50 at hMC4-R [2] (setting [3]) and on hMC4-R [2] (setting [4]) was 0.13 nM in each case. In addition, the Emax at hMC4-R [2] (setting [3]) was found to be 86%; at hMC4-R [2] (setting [4]) it was 90%.

In the case of `CC(=O)N[C@@H](CCCNC(=N)N)C(=O)N[C@H]1CCC(=O)NCCC[C@@H](C(N)=O)NC(=O)[C@H](Cc2c[nH]c3ccccc23)NC(=O)[C@H](CCCNC(=N)N)NC(=O)[C@@H](Cc2ccc(F)cc2)NC(=O)[C@H](CCS(C)(=O)=O)NC1=O` [Example 68, Ac-Arg-cyclo(Glu-Met(O2)-D-Phe(4-F)-Arg-Trp-Orn)-NH2], the Ki is 2 nM at hMC4-R [1] and 33 nM on MC1-R. For the same molecule, the EC50 was found to be 0.85 nM at hMC4-R [2] (setting [3]) and 0.075 nM on hMC4-R [2] (setting [4]). Also, the Emax at hMC4-R [2] (setting [3]) is 55%; on hMC4-R [2] (setting [4]), 91%.

`CC(=O)N[C@@H](CCCNC(=N)N)C(=O)N[C@H]1CCC(=O)NCCC[C@@H](C(N)=O)NC(=O)[C@H](Cc2c[nH]c3ccccc23)NC(=O)[C@H](CCCNC(=N)N)NC(=O)[C@@H](Cc2ccccc2Cl)NC(=O)[C@H](CCC(N)=O)NC1=O` [Example 34, Ac-Arg-cyclo(Glu-Gln-D-Phe(2-Cl)-Arg-Trp-Orn)-NH2]: the Ki amounted to 7 nM on hMC4-R [1] and 128 nM on MC1-R. In addition, the EC50 on hMC4-R [2] (setting [3]) is 1 nM. Further, the Emax on hMC4-R [2] (setting [3]) was 79%; at hMC4-R [2] (setting [4]) it was 97%.

Regarding `CC(=O)N[C@@H](CCCNC(=N)N)C(=O)N[C@H]1CCC(=O)NCCC[C@@H](C(N)=O)NC(=O)[C@H](Cc2c[nH]c3ccccc23)NC(=O)[C@H](CCCNC(=N)N)NC(=O)[C@@H](Cc2ccc(C#N)cc2)NC(=O)[C@@H]2C[C@@H](O)CN2C1=O` [Example 40, Ac-Arg-cyclo(Glu-Hyp-D-Phe(4-CN)-Arg-Trp-Orn)-NH2], the Ki is 2 nM at hMC4-R [1] and 880 nM at MC1-R. For the same molecule, the values for the Emax at hMC4-R [2] (setting [3]) and on hMC4-R [2] (setting [4]) were 8% and 93%, respectively. Further, at hMC4-R [2] (setting [4]), the EC50 was 0.5 nM.

For `CC(=O)N[C@@H](CCCNC(=N)N)C(=O)N[C@H]1CCC(=O)NCCC[C@@H](C(N)=O)NC(=O)[C@H](Cc2c[nH]c3ccccc23)NC(=O)[C@H](CCCNC(=N)N)NC(=O)[C@@H](Cc2cccc(Cl)c2)NC(=O)[C@H](CCC(N)=O)NC1=O` [Example 38, Ac-Arg-cyclo(Glu-Gln-D-Phe(3-Cl)-Arg-Trp-Orn)-NH2], the Ki at hMC4-R [1] came to 3 nM; on MC1-R it was 290 nM. On hMC4-R [2] (setting [3]), this molecule yielded an EC50 of 2 nM. Moreover, the Emax came to 31% on hMC4-R [2] (setting [3]) and 97% at hMC4-R [2] (setting [4]).

In the case of `CC(=O)N[C@@H](CCCNC(=N)N)C(=O)N[C@H]1CCC(=O)NCCC[C@@H](C(N)=O)NC(=O)[C@H](Cc2c[nH]c3ccccc23)NC(=O)[C@H](CCCNC(=N)N)NC(=O)[C@@H](Cc2ccc(C#N)cc2)NC(=O)[C@H]([C@@H](C)O)NC1=O` [Example 44, Ac-Arg-cyclo(Glu-Thr-D-Phe(4-CN)-Arg-Trp-Orn)-NH2], the values for the Ki on hMC4-R [1] and at MC1-R were 18 nM and 1620 nM, respectively. The molecule further yielded an EC50 on hMC4-R [2] (setting [3]) of 11 nM. The Emax on hMC4-R [2] (setting [3]) was determined as 22%; at hMC4-R [2] (setting [4]), 99%.

As usually defined, the Ki is the dissociation constant of the complex between target and ligand, obtained from inhibition or displacement. One may read the EC50 as the concentration that produces a half-maximal response. A low value points to an effect from little substance.
